Data: patent US20190069553A1, “METHOD FOR CONTROLLING PPO RESISTANT WEEDS” (BASF SE, priority 2016, published 2019)
Like-named read-outs stand apart in the source and are kept apart here.

Tests used:
Assay type in all cases: in vivo
[1] = test system: Amaranthus tamariscinus (common waterhemp, AMATA), PPO resistant biotype 8 (w.12); experiment: Greenhouse herbicidal activity test, third experiment, weed w.12; conditions: use rate 4 g/ha; PPO resistant biotype 8 common waterhemp; scale 0 to 100
[2] = test system: Amaranthus tamariscinus (common waterhemp, AMATA), PPO resistant biotype 7 (w.11); experiment: Greenhouse herbicidal activity test, third experiment, weed w.11; conditions: use rate 4 g/ha; PPO resistant biotype 7 common waterhemp; scale 0 to 100
[3] = test system: Amaranthus tamariscinus (common waterhemp, AMATA), sensitive biotype (w.10); experiment: Greenhouse herbicidal activity test, third experiment, weed w.10; conditions: scale 0 to 100
[4] = test system: Amaranthus tamariscinus (common waterhemp, AMATA), sensitive biotype (w.1); conditions: scale 0 to 100
[5] = test system: Amaranthus tuberculatus (tall waterhemp, AMATU), sensitive biotype (w.7); experiment: Greenhouse herbicidal activity test, another (second) experiment, weed w.7; conditions: scale 0 to 100
[6] = test system: Ambrosia elatior (common ragweed, AMBEL), sensitive biotype (w.4); conditions: scale 0 to 100

Row | Structure (SMILES) | Weed control (%) w.12 [1] | Weed control (%) w.11 [2] | Weed control (%) w.10 ([3]; use rate 2 g/ha) | Weed control (%) w.10 ([3]; use rate 4 g/ha) | Weed control (%) w.1 ([4]; use rate 1 g/ha) | Weed control (%) w.1 ([4]; use rate 2 g/ha) | Weed control (%) 7 ([5]; use rate 1 g/ha) | Weed control (%) 7 ([5]; use rate 2 g/ha) | Weed control (%) w.4 ([6]; use rate 1 g/ha) | Weed control (%) w.4 ([6]; use rate 2 g/ha)
1 | C#CCOc1cc(-n2nc3n(c2=O)CCCC3)c(Cl)cc1Cl [azafenidin, reference compound] | 72% | 73% | 95% | 98% |  |  |  |  |  | 
2 | CCOC(=O)COc1ncccc1Oc1cc(-n2c(=O)cc(C(F)(F)F)n(C)c2=O)c(F)cc1Cl [compound (I).1, ethyl [3-[2-chloro-4-fluoro-5-(1-methyl-6-trifluoromethyl-2,4-dioxo-1,2,3,4-tetrahydropyrimidin-3-yl)phenoxy]-2-pyridyloxy]acetate] |  |  |  |  | 100% | 100% | 100% | 100% | 100% | 100%
3 | CCOC(=O)COc1ccccc1Oc1cc(-n2c(=O)cc(C(F)(F)F)n(C)c2=O)c(F)cc1Cl [compound (I).4] | 99% | 100% | 100% | 100% |  |  |  |  |  | 
4 | C#CCN1C(=O)COc2cc(F)c(N3C(=O)C4=C(CCCC4)C3=O)cc21 [flumioxazin, reference compound] |  |  |  |  | 90% | 95% |  |  | 50% | 65%
